Common to all, as to assay: NCI anticancer screen, dose series, 48 h
Assay [1] has as its system EKVX.
Assay [2] concerns SN12C.
The test system of assay [3] is Malme-3M.
Assay [4] has as its system NCI-H226.
The subject of assay [5] is TK-10.
The test system of assay [6] is NCI-H522.
Assay [7] concerns 786-0.
Assay [8] concerns LOX IMVI.
Assay [9] has as its system HOP-92.
Assay [10] deals with NCI-H23.
The test system of assay [11] is A549.
The test system of assay [12] is U-251.
In assay [13] the test system is SF-268.
Assay [14] concerns UO-31.
The subject of assay [15] is HT-29.
Assay [16] concerns HCC 2998.
For assay [17], the system named is SK-OV-3.

Molecules are shown by their SMILES.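 Values below derive from 48-hour exposures of cells grown in 96-well plates, with endpoints linearly interpolated between the two concentrations bracketing the appropriate inhibition level. Abbreviation: GI50, concentration required for 50% inhibition of growth.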 Activity calls are given as the source filed them. Cut-off read from the data, not from the text of the source: active = GI50 up to about 1.1 µM and inactive = higher. Some results are limits rather than exact numbers.

For the compound `CC(C)(CCl)NC(=O)c1cccc(C(=O)NC(C)(C)CCl)n1`, the GI50 in [1], in assay [2], in assay [3], in [4], in [5] and in [6] was > 100 µM (inactive) each time. In addition, the GI50 in assay [7], in [8], in [9], in assay [10], in assay [11] and in assay [12] was > 100 µM (inactive) throughout. In addition, the GI50 in [13], in [14], in assay [15], in [16] and in [17] was > 100 µM (inactive) throughout.

Take `C=CCCn1nc(-c2ccccc2)oc1=O`: the GI50 in assay [1], in assay [2], in [3], in [4], in assay [5] and in assay [6] was > 100 µM (inactive) in each case. The GI50 in assay [7], in assay [8], in assay [9], in assay [10], in assay [11] and in [12] was > 100 µM (inactive) each time. For the same compound, the GI50 in assay [13], in assay [14], in [15], in assay [16] and in assay [17] was > 100 µM (inactive) each time.

As for `CCOC(=O)N1Cc2ccoc2C1`, the GI50 in [1], in assay [2], in [3], in [4], in assay [5] and in assay [6] was > 100 µM (inactive) each time. For the same compound, the GI50 in [7] is > 100 µM (inactive); in assay [8] it was > 100 µM (inactive); in assay [9], > 100 µM (inactive); in assay [10], > 100 µM (inactive); in assay [11], 43.7 µM (inactive); in assay [12] it was > 100 µM (inactive). In addition, the GI50 in assay [13] was 0.769 µM (active); in [14], > 100 µM (inactive); in assay [15], > 100 µM (inactive); in assay [16], > 100 µM (inactive); in assay [17], > 100 µM (inactive).

As for `O=C(Nc1nc2ncn(CCOC(=O)c3ccccc3)c2c(=S)[nH]1)c1ccccc1`, the GI50 in [1] was > 100 µM (inactive); in assay [2], > 100 µM (inactive); in assay [3] it was 42.5 µM (inactive); in [4] it was 47.5 µM (inactive); in assay [5] it was > 100 µM (inactive); in assay [6], 21 µM (inactive). Also, the GI50 is 62.5 µM (inactive) in assay [7]; > 100 µM (inactive) in [8]; 42.7 µM (inactive) in [9]; 66.2 µM (inactive) in [11]; 31.8 µM (inactive) in assay [12]; 13.5 µM (inactive) in [13]. Besides, the GI50 in assay [14] was 61.7 µM (inactive); in assay [15], > 100 µM (inactive); in assay [16], > 100 µM (inactive); in [17], > 100 µM (inactive).

As to `O=C(COc1ccccc1Cl)N1N=C(c2ccccc2)CC1(O)c1ccccc1` (stereo not given), the GI50 was 12.9 µM (inactive) in assay [2]; 14.9 µM (inactive) in assay [3]; 18.5 µM (inactive) in assay [4]; 17.1 µM (inactive) in assay [5]; 41.9 µM (inactive) in assay [6]; 17.3 µM (inactive) in assay [7]. Besides, the GI50 in assay [8] is 16.7 µM (inactive); in [9] it was 22.3 µM (inactive); in assay [10] it was 12.1 µM (inactive); in assay [11], 16.9 µM (inactive); in assay [12], 11.7 µM (inactive); in [13] it was 24.6 µM (inactive). Also, the GI50 in assay [14] is 10.1 µM (inactive); in assay [15], 17 µM (inactive); in assay [16], 15.9 µM (inactive); in [17] it was 14.9 µM (inactive).

In the case of `CN(C)CCNC(=O)c1cccc2cc3c(Cl)cccc3nc12`, the GI50 is 2.35 µM (inactive) in assay [1]; 1.07 µM (active) in assay [2]; 0.865 µM (active) in assay [3]; 1.15 µM (inactive) in [4]; 1.95 µM (inactive) in [5]; 2.86 µM (inactive) in assay [6]. Further, the GI50 is 1.12 µM (active) in assay [7]; 0.583 µM (active) in assay [8]; 2.07 µM (inactive) in [9]; 1.38 µM (inactive) in [10]; 0.556 µM (active) in assay [11]; 1.24 µM (inactive) in assay [12]. Also, the GI50 in assay [14] is 2.55 µM (inactive); in assay [15] it was 0.889 µM (active); in assay [16], 1.27 µM (inactive); in assay [17], 3.53 µM (inactive).

On to `CN(c1ccccc1)c1c(Cl)c(=O)oc2c1ccc1occc12`, for which the GI50 is 33.3 µM (inactive) in assay [1]; > 100 µM (inactive) in assay [2]; > 100 µM (inactive) in assay [3]; > 100 µM (inactive) in [4]; > 100 µM (inactive) in [5]; > 100 µM (inactive) in assay [6]. Moreover, the GI50 was > 100 µM (inactive) in assay [7]; 97.3 µM (inactive) in assay [8]; 67.3 µM (inactive) in assay [9]; > 100 µM (inactive) in [10]; > 100 µM (inactive) in assay [11]; > 100 µM (inactive) in assay [12]. Moreover, the GI50 in assay [14], in assay [15] and in assay [16] was > 100 µM (inactive) each time.

With `Cc1cc(C(O)CCCc2ccccc2)cc(C)c1O` (stereo not given), the GI50 in assay [1] was 20.5 µM (inactive); in assay [2], 41.8 µM (inactive); in assay [3], 18.9 µM (inactive); in assay [4] it was 24 µM (inactive); in assay [5], 31.6 µM (inactive); in assay [6], 27.4 µM (inactive). Further, the GI50 is 40.6 µM (inactive) in assay [7]; 34 µM (inactive) in [8]; 39.8 µM (inactive) in assay [10]; 32.7 µM (inactive) in assay [11]; 45.7 µM (inactive) in assay [12]; 28.4 µM (inactive) in [13]. The GI50 in [14] is 15.4 µM (inactive); in [16], 74.1 µM (inactive); in [17] it was > 100 µM (inactive).

Consider `COC(=O)C(=O)C(C#N)c1nc2ccccc2s1` (stereo not given), for which the GI50 is > 100 µM (inactive) in assay [1]; > 100 µM (inactive) in [2]; > 100 µM (inactive) in assay [3]; 23.9 µM (inactive) in assay [4]; > 100 µM (inactive) in assay [5]; > 100 µM (inactive) in assay [6]. Further, the GI50 in [7], in assay [8], in assay [9], in [10], in assay [11] and in assay [13] was > 100 µM (inactive) throughout. For the same compound, the GI50 in [14] was 39.8 µM (inactive); in [15], 66.4 µM (inactive); in assay [16], > 100 µM (inactive); in [17] it was > 100 µM (inactive).

For the origin of these results see ChEMBL document CHEMBL1201862, “PubChem BioAssay data set” (2004).
